Ends that are not written are not given here. Peptide text beside a SMILES is read from it.
Columns and labels:
[1] = tested on: HeLa cells; assay: Plasmid DNA (pEGFP-C1) transfection by peptides (% cells with GFP signal, cell viability); conditions: DNA transfection in HeLa cells using peptides; pEGFP-C1 plasmid
[2] = in vitro; conditions: human, HeLa cells
[3] = in vitro; conditions: human, HeLa cells; for viability: Cell viability (%) (±St Dev.; n = 3)
[4] = tested on: HeLa cells; assay: GFP-NLS protein transduction assay (flow cytometry: Pos cells %, viability %, relative fluorescence intensity; microscopy); conditions: HeLa cells
[5] = tested on: HeLa cells; conditions: human, 10 s, 50 µM
[6] = in vitro; conditions: human, HCC-78 cells
[7] = in vitro; conditions: human, NCI-H196 cells
[8] = tested on: THP-1 cells; assay: HOXB4-WT transduction: target gene mRNA by real-time PCR (Fold over control) and total RNA (ng/μL) as marker for cell viability; type: cell-based, human; conditions: THP-1, serum
Procedure: Control and treated cells are transferred to separate sterile 1.5-mL tubes and centrifuged for 5 minutes at 300g. The cell pellets are resuspended in appropriate buffer to lyse the cells. RNAase-free 70% ethanol is then added followed by mixing by pipetting. The lysates are transferred to an RNeasy™ Mini spin column and centrifuged 30 seconds at 13000 RPM. After several washes with appropriate buffers and centrifugation steps, the eluates are collected in sterile 1.5-mL tubes on ice, and the RNA quantity in each tube is then quantified with a spectrophotometer. For DNase treatment, 2 μg of RNA is diluted in 15 μL of RNase-free water. 1.75 μL of 10X DNase buffer and 0.75 μL of DNase is then added, followed by incubation at 37° C. for 15 minutes. For reverse transcriptase treatment, 0.88 μL of EDTA […] is added, followed by incubation at 75° C. for 5 minutes. In a PCR tube, […] of DNase-treated RNA is mixed with 4 μL of iScript™ Reverse transcription Supermix (5X) and […] of nuclease-free water. The mix is incubated in a PCR machine with the following program: 5 min at 25° C., 30 min at 42° C. and 5 min at 85° C. Newly synthesized cDNA is transferred in sterile 1.5-mL tubes and diluted in 2 μL of nuclease-free water. 18 μL per well of a qPCR machine (CFX-96™) mix is then added in a PCR plate for analysis.
Briefly, THP-1 cells were plated at 30 000 cells/well one day before transduction. HOXB4-WT recombinant protein ([…]; Example 14.1) was co-incubated with different concentrations of His-CM18-PTD4 ([…]) and then exposed to THP-1 cells for 2.5 hours in the presence of serum. The cells were subjected to real time-PCR analysis as described in Example 14.2 to measure the mRNA levels of a target gene as a marker for HOXB4 activity, which was then normalized to the target gene mRNA levels detected in the negative control cells (no treatment), to obtain a “Fold over control” value. Total RNA levels (ng/μL) were also measured as a marker for cell viability.
Briefly, THP-1 cells were plated at 30 000 cells/well one day before the first time course experiment. HOXB4-WT recombinant protein (1.5 μM; Example 14.1) was co-incubated with His-CM18-PTD4 (0.8 μM) and then exposed to THP-1 cells for 0, 2.5, 4, 24 or 48 hours in presence of serum. The cells were subjected to real time-PCR analysis as described in Example 14.2 to measure mRNA levels of a target gene as a marker for HOXB4 activity, which was then normalized to the target gene mRNA levels detected in the negative control cells (no treatment), to obtain a “Fold over control” value. Total RNA levels (ng/μL) were also measured as a marker for cell viability.
Briefly, THP-1 cells were plated at 30 000 cells/well one day before the first time course experiment. HOXB4-WT recombinant protein (0.3 μM; Example 14.1) was co-incubated with His-CM18-PTD4 (0.8 μM) and then exposed to THP-1 cells for 0, 0.5, 1, 2, 2.5, 3 or 4 hours in presence of serum. The cells were subjected to real time-PCR analysis as described in Example 14.2 to measure mRNA levels of a target gene as a marker for HOXB4 activity, which was then normalized to target gene mRNA levels detected in the negative control cells (no treatment), to obtain a “Fold over control” value. Total RNA levels (ng/μL) were also measured as a marker for cell viability.
Briefly, THP-1 cells were plated at 30 000 cells/well one day before the first time course experiment. HOXB4-WT recombinant protein (1.5 μM; Example 14.1) co-incubated with the shuttle agents His-CM18-PTD4, TAT-KALA, EB1-PTD4, His-C(LLKK)3C-PTD4 and His-CM18-PTD4-His at 0.8 μM, and then exposed to THP-1 cells for 2.5 hours in presence of serum. The cells were subjected to real time-PCR analysis as described in Example 14.2 to measure mRNA levels of a target gene as a marker for HOXB4 activity, which was then normalized to target gene mRNA levels detected in the negative control cells (no treatment), to obtain a “Fold over control” value. […]

[9] = Cell viability (%) (±St. Dev.; n = 3)

In the case of `CC(C)C[C@H](NC(=O)[C@H](CC(C)C)NC(=O)[C@H](CCCCN)NC(=O)[C@H](CCCCN)NC(=O)[C@H](CC(C)C)NC(=O)[C@H](CC(C)C)NC(=O)[C@H](CCCCN)NC(=O)[C@H](CCCCN)NC(=O)[C@H](CC(C)C)NC(=O)[C@H](CC(C)C)NC(=O)[C@@H](N)CS)C(=O)N[C@@H](CCCCN)C(=O)N[C@@H](CCCCN)C(=O)N[C@@H](CS)C(=O)O` [C(LLKK)3] (H-CLLKKLLKKLLKKC-OH; N-terminus and C-terminus assumed), the “Mean % cells with GFP signal (±St. Dev.; n = 3)” value (from here on “Mean % cells with GFP signal”) [1] is reported as 0.00 ± 0.00% and the viability [2] is reported as 81.7 ± 2.34%.

In the case of `CC[C@H](C)[C@H](NC(=O)[C@H](CCCCN)NC(=O)[C@H](CCCCN)NC(=O)[C@H](Cc1ccccc1)NC(=O)[C@H](CC(C)C)NC(=O)[C@H](CCCCN)NC(=O)[C@H](Cc1c[nH]c2ccccc12)NC(=O)[C@@H](N)CCCCN)C(=O)NCC(=O)N[C@@H](C)C(=O)N[C@H](C(=O)N[C@@H](CC(C)C)C(=O)N[C@@H](CCCCN)C(=O)N[C@H](C(=O)N[C@@H](CC(C)C)C(=O)N[C@H](C(=O)N[C@H](C(=O)NCC(=O)N[C@@H](CCCNC(=N)N)C(=O)N[C@@H](CCC(N)=O)C(=O)N[C@H](C(=O)N[C@@H](CCCCN)C(=O)N[C@H](C(=O)N[C@@H](Cc1c[nH]c2ccccc12)C(=O)N[C@@H](Cc1ccccc1)C(=O)N[C@@H](CCC(N)=O)C(=O)N[C@@H](CC(N)=O)C(=O)N[C@@H](CCCNC(=N)N)C(=O)N[C@@H](CCCNC(=N)N)C(=O)N[C@@H](CCSC)C(=O)N[C@@H](CCCCN)C(=O)N[C@@H](Cc1c[nH]c2ccccc12)C(=O)N[C@@H](CCCCN)C(=O)N[C@@H](CCCCN)C(=O)N[C@@H](CS)C(=O)O)[C@@H](C)CC)[C@@H](C)CC)[C@@H](C)O)[C@@H](C)O)C(C)C)C(C)C` [CM18-Pen-Cys], the “Mean % cells with GFP signal” value [1] is reported as 0.01 ± 0.0% and the viability [2] is reported as 16.1 ± 0.12%.

With `CC(C)C[C@H](NC(=O)[C@H](CCCNC(=N)N)NC(=O)[C@H](CCC(=O)O)NC(=O)CNC(=O)[C@H](CCC(N)=O)NC(=O)[C@@H](NC(=O)[C@H](Cc1c[nH]c2ccccc12)NC(=O)[C@H](CC(C)C)NC(=O)[C@H](CCCCN)NC(=O)[C@H](CC(C)C)NC(=O)[C@H](CC(C)C)NC(=O)[C@H](CCCNC(=N)N)NC(=O)[C@H](CO)NC(=O)[C@H](Cc1c[nH]c2ccccc12)NC(=O)[C@H](CC(C)C)NC(=O)[C@H](CS)NC(=O)[C@H](CC(C)C)NC(=O)[C@H](CC(C)C)NC(=O)[C@H](Cc1c[nH]cn1)NC(=O)[C@H](Cc1c[nH]cn1)NC(=O)[C@H](Cc1c[nH]cn1)NC(=O)[C@H](Cc1c[nH]cn1)NC(=O)[C@H](Cc1c[nH]cn1)NC(=O)[C@@H](N)Cc1c[nH]cn1)[C@@H](C)O)C(=O)N[C@@H](CCCCN)C(=O)N[C@@H](C)C(=O)N[C@@H](CCCCN)C(=O)N[C@@H](CS)C(=O)N[C@@H](C)C(=O)N[C@@H](CCCCN)C(=O)N[C@@H](C)C(=O)N[C@@H](CS)C(=O)N[C@@H](CCC(=O)O)C(=O)N[C@@H](CCCNC(=N)N)C(=O)O` [FSD24] (H-HHHHHHLLCLWSRLLKLWTQGERLKAKCAKACER-OH; N-terminus and C-terminus assumed) the “Mean % cells with GFP signal” value [1] was 0.20 ± 0.00%, the viability [3] was 75.3 ± 3.93% and the viability [2] was 96.5 ± 3.02%. For the same molecule, the “Mean % cells with GFP signal” value ([4]; Table B2, GFP-NLS cargo) was 37.48 ± 4.08%.

With “GLFEALLELLESLWELLLEAYARAAARQARA [JST-PTD4]” the viability [2] was 70.2 ± 5.39% and the “Cell viability (%) (±St. Dev.; n = 3)” value [5] was 98.9 ± 0.57%.

For “HHHHHHCMKVVWEIVLAKYKGGGGRARAASRRARA [FSD42]”, the “Mean % cells with GFP signal” value [1] was 0.12 ± 0.02%, the viability at 1 min, 10 µM [3, 9] was 97.3 ± 1.07% and the viability [2] was 96.7 ± 1.96%. The “Mean % cells with GFP signal” value ([4]; Table C3, GFP-NLS 10 μM, 10 μM of the peptide, 1 min) was 1.59 ± 0.39%.

For “HHHHHHHHHKWKLFKKIGAVLKVLTTGYARAAARQARA [Peptide 9His-CM18-PTD4]”, the “Mean % cells with GFP signal” value [1] was 0.04 ± 0.01% and the viability [2] was 98.72 ± 0.93%.

For “HHHHHHLLKLWSRLLKLWTQGRRLKAKRAKAHHHHHH [FSD5]”, the viability [3] was 86 ± 7.45%, the viability at 1 min, 8 µM [3, 9] was 85 ± 6.27% and the viability at 1 min, 10 µM [3, 9] was 76 ± 7.45%. The viability at 2 min, 5 µM [3, 9] was 35.5 ± 4.82%, the viability [2] was 93.2 ± 8.63% and the viability at 1 min, 8 µM [6] was 87.7 ± 6.52%. For the same molecule, the viability at 1 min, 10 µM [6] was 15.9 ± 0.83%, the viability at 2 min, 5 µM [6] was 75.3 ± 6.18% and the viability at 1 min, 8 µM [7] was 69.9 ± 6.38%. It also gave a viability at 1 min, 10 µM [7] of 47.2 ± 3.54% and a viability at 2 min, 5 µM [7] of 77.2 ± 6.17%.

With HOXB4-WT the “Fold over control (mean ± St. Dev)” value ([8]; Table 14.1, 2.5 hours, shuttle 0 μM, HOXB4-WT 1.5 μM (alone)) was 4.3 ± 0.1, the “Fold over control (mean ± St. Dev)” value ([8]; Table 14.2, shuttle 0 μM, HOXB4-WT 1.5 μM (alone), exposure 2.5 h) was 3.4 ± 0.3 and the “Fold over control (mean ± St. Dev)” value ([8]; Table 14.3, shuttle 0.8 μM, HOXB4-WT 0 μM (alone), exposure 2.5 h) was 1 ± 0.14. The “Fold over control (mean ± St. Dev)” value ([8]; Table 14.4, shuttle 0.8 μM, HOXB4-WT 0 μM (alone), exposure 2.5 h) was 1 ± 0.11.

From US12286632B2, “Rationally-designed synthetic peptide shuttle agents for delivering polypeptide cargos from an extracellular space to the cytosol and/or nucleus of a target eukaryotic cell, uses thereof, methods and kits relating to same” (Feldan Bio Inc., priority 2016, dated 2025)
